The source of these data is PubChem BioAssay (NCI).

Values joined by “and” are separate entries in the source; they are usually repeats but may differ in a detail not shown here. Equal values may be shown once.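 How tested: cells in 96-well plates exposed to compound for 48 hours at five concentrations. Here, GI50 denotes the concentration required for 50% inhibition of growth. TGI: total growth inhibition.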

What all share (assay): NCI tumour cell line growth inhibition, 48 h
Assay [1] relates to MDA-N.
For assay [2], the system named is DMS 273 small cell lung.
The test system of assay [3] is SNB-78 CNS.
The test system of assay [4] is KM20L2 colon.
In assay [5] the test system is LXFL 529 NSCLC.
Assay [6] has as its system DLD-1 colon.
The test system of assay [7] is SN12K1 renal.
Assay [8] has as its system HOP-18 NSCLC.
The test system of assay [9] is P388 leukemia.
Assay [10] deals with DMS 114 small cell lung.
Assay [11] has as its system RXF-631 renal.

In assay [1], `COc1cc2c(cc1OC)[C@H]1C(=O)c3cc4c(cc3[C@H]1N(C)C2=O)OCO4` gave a TGI greater than 100 µM.
Consider `COc1cc(C2c3cc4c(cc3[C@@H](Nc3cccc(O)c3)C3COC(=O)[C@H]23)OCO4)cc(OC)c1O` (some centres undefined), for which the GI50 is 0.404 µM in assay [2], 0.906 µM in assay [3], 0.85 µM in assay [5] and 0.49 µM in assay [10]. Besides, the TGI was determined as 6 µM in assay [2]; 65.1 µM in assay [3]; 20.5 µM in [1]; 17.6 µM in assay [4]; 24.9 µM in assay [5]; 40.9 µM in [6]. The TGI in assay [7] turned out to be 7.81 µM; in assay [8] it was 33 µM; in [9], 0.507 µM; in assay [10], 5.21 µM.
`O=C1c2ccccc2C(=O)c2c1ccc1c3ccccc3n(Cc3ccccc3)c21`: the TGI is greater than 100 µM in assay [5], greater than 100 µM in [6], 0.0908 µM in assay [8] and greater than 100 µM in assay [10].
For `Cc1cc(N)c2ccccc2[n+]1CCCCCCCCCC[n+]1c(C)cc(N)c2ccccc21`, in assay [1], the GI50 was 2.13 µM; the TGI is 6.08 µM and 6.72 µM.
`O=C(CC(C(=O)O)N1CCOCC1)c1ccccc1` (centres undefined) registered a TGI in assay [1] of 36.8 µM.
On the same count and under the same terms, the figure for `N#CC1(C#N)C2C=CC(C3CCC=C32)C1(C#N)C#N` (centres undefined) is greater than 10 µM.
In the case of `N#CC(=C=[N-])[n+]1ccc(Cl)cc1`, the TGI in assay [2] turned out to be 46.2 µM; in assay [11] it was 52.5 µM; in [3], 42.4 µM; in assay [4], 65.4 µM; in [5], 27.6 µM; in assay [6], 24.4 µM. Also, the TGI in assay [10] amounted to 26.9 µM.
Consider `O=C1/C(=C/c2ccccc2)CN(C(=O)OCC(Cl)(Cl)Cl)C/C1=C\c1ccccc1`, for which the TGI is 3.27 µM in assay [2]; 5.92 µM in assay [3]; 7.68 µM in assay [4]; 3.94 µM in [5]; 3.77 µM in assay [6]; 9.82 µM in assay [8]. In assay [10], this compound had a TGI of 4.08 µM.
For the compound `CCC1NCC(=O)c2c1[nH]c1ccccc21` (centres undefined), the TGI in assay [2], in assay [3], in assay [4], in assay [5], in [6] and in assay [8] was greater than 100 µM throughout. The TGI in [10] is greater than 100 µM.
`CN1CC(C(=O)NC2(C)OC3(O)C4CCCN4C(=O)C(Cc4ccccc4)N3C2=O)C=C2c3cccc4[nH]cc(c34)CC21` (centres undefined) returned a TGI in assay [1] of 55.1 µM.
Regarding `Cc1cccc(CC(C)(C)C)c1NC(=O)C(=O)C(C(=O)c1ccc2ccccc2c1)C1OC(=O)c2ccccc21` (centres undefined), the TGI is greater than 100 µM in assay [3], 35.1 µM in [6] and 56.7 µM in [10].
For the compound `O=[N+]([O-])O.[NH-]C1CCCCC1[NH-].[NH-]C1CCCCC1[NH-].[NH-]C1CCCCC1[NH-].[OH-].[OH-].[OH-].[Pt+4].[Pt+4].[Pt+4]` (centres undefined), in assay [1], the GI50 was 0.205 µM and the TGI is 6.74 µM.
Consider `CCN1CC2(C)CC[C@@H](OC)C34[C@@H]2[C@H](OC(C)=O)C2(OCO[C@@]25C[C@H](OC)C2C[C@]3(O)[C@@H]5[C@H]2O)[C@H]14`, for which the TGI in assay [3], in assay [4], in assay [5], in assay [6] and in assay [10] was greater than 100 µM throughout.
Turning to `CCCCCCCCCCCCCCCC(=O)OCC1OC(n2ccc(N)nc2=O)C(O)C1O` (centres undefined), the TGI in assay [2], in [3], in assay [1], in assay [4], in [5] and in assay [6] was greater than 100 µM in each case. Further, the TGI in assay [8] was greater than 100 µM.
`CC(C)(C)NCCC(O)c1cc(C(F)(F)F)nc2c(C(F)(F)F)cccc12` (centres undefined) came in with a TGI in assay [1] of 24 µM.
Turning to `CC[C@@]1(OC(=O)CN(C)C)C(=O)OCc2c1cc1n(c2=O)Cc2cc3ccccc3nc2-1`, the TGI in [2] was 0.149 µM; in [3], greater than 100 µM; in assay [1], 1.92 µM and 3.8 µM; in [4] it was 4.94 µM; in [5] it was 5.02 µM and 3.35 µM; in assay [6], 30.4 µM. In [10], this compound came in with a TGI of 1.53 µM. Besides, the GI50 in assay [3] was 0.957 µM; in [5], 0.577 µM; in assay [6], 0.806 µM; in assay [8], 0.113 µM.
On to `Nc1ccc2c(c1)CN1C(=O)c3ccccc3C1=N2`, for which the TGI in assay [2] is greater than 125 µM; in [3], greater than 79.4 µM; in assay [1] it was greater than 125 µM; in assay [4], greater than 125 µM; in assay [6], greater than 125 µM; in [7], greater than 72.4 µM. Besides, the TGI in assay [8], in assay [9] and in assay [10] was greater than 125 µM in each case.
For `C/C(=N\NC(=S)N1CCC(C2CCN(C(=S)N/N=C(\C)c3ccccn3)CC2)CC1)c1ccccn1`, the TGI in assay [2], in [11], in assay [3], in assay [4], in assay [5] and in assay [6] was greater than 100 µM each time. Besides, the TGI in [8] was greater than 100 µM.
Turning to `O=C(OCc1nc2ccc(Br)cc2c(=O)n1-c1ccccc1)c1ccccc1O`, the TGI in [3], in [4], in assay [5] and in [6] was greater than 100 µM in each case.
On to `Cc1cccc(N2C(=O)/C(=C/c3ccc(N(CCC#N)CCC#N)cc3C)N=C2c2cc([N+](=O)[O-])ccc2Cl)c1`, for which the TGI in assay [2], in assay [11], in assay [5], in assay [6], in assay [8] and in assay [10] was greater than 100 µM in each case.
As to `CC(C)=C1CCC(CN2CCCC2)C1=O` (centres undefined), the TGI in assay [2] is greater than 100 µM; in assay [11] it was greater than 100 µM; in assay [3], greater than 100 µM; in assay [4], greater than 100 µM; in assay [5], 32.2 µM; in assay [6], 33.7 µM. For the same compound, the results for the TGI in assay [8] and in [10] were 32.7 µM and 37 µM, respectively.
On to `O=C1CC2Sc3ccccc3N=C2N1c1ccc(Cl)cc1Cl` (centres undefined), for which the TGI in [11], in [3], in assay [4], in [5], in [6] and in assay [8] was greater than 100 µM throughout. For the same compound, the TGI in assay [10] is greater than 100 µM.
As to `CCOC(=N)CC(=O)NC(C)c1ccccc1` (centres undefined), the TGI in assay [2], in assay [11], in [3], in [4], in [5] and in assay [6] was greater than 100 µM each time. For the same compound, the TGI in [8] is greater than 100 µM.
In the case of `CCCCCCCCCCCCCCCC(=O)N[C@H]1CCc2cc(OC)c(OC)c(OC)c2-c2ccc(SC)c(=O)cc21`, the GI50 in [3] is 0.669 µM; in assay [4] it was 1.59 µM; in assay [5], 1.55 µM; in assay [6] it was 0.709 µM. Also, the TGI is 80 µM and 25.7 µM in assay [3]; 0.344 µM and 3.4 µM in [4]; 9.54 µM and 4.92 µM in [5]; 10.6 µM and 12.4 µM in assay [6]; 36.9 µM in assay [8].
For `O=C1/C(=C/c2ccccc2)CN(C(=O)Oc2ccc([N+](=O)[O-])cc2)C/C1=C\c1ccccc1`, the GI50 in assay [2] was 1.22 µM; in assay [4], 3.9 µM; in assay [5] it was 1.41 µM; in [6], 1.2 µM; in assay [10], 1.68 µM. Besides, the TGI in assay [2] is 2.94 µM and 3.17 µM; in [3] it was 28.5 µM; in assay [4], 8.2 µM; in assay [5], 5.41 µM and 2.9 µM; in assay [6] it was 4.83 µM and 3.45 µM; in assay [10], 4.63 µM and 3.84 µM.
Take `CCOC(=O)NNC(=O)NC12CC3CC(CC(C3)C1)C2`: the TGI in [2], in assay [3], in assay [4], in assay [5], in assay [6] and in assay [8] was greater than 100 µM each time. Besides, in assay [10], the TGI was greater than 100 µM.
With `C/C(=N/Nc1ccc([N+](=O)[O-])cc1[N+](=O)[O-])C(CC(C(=O)Nc1ccccc1C)/C(C)=N\Nc1ccc([N+](=O)[O-])cc1[N+](=O)[O-])C(=O)Nc1ccccc1C` (centres undefined), the TGI is 41.7 µM in assay [2]; 52.2 µM in assay [3]; greater than 88.3 µM in [4]; 27.9 µM in assay [5]; greater than 100 µM in assay [6]; 28.9 µM in assay [8]. In assay [10], the TGI is 17.7 µM.
Regarding `CC[C@@]1(O)C(=O)OCc2c1cc1n(c2=O)Cc2cc3c(NC(C)=O)c(O)ccc3nc2-1`, the GI50 in [2] is 0.296 µM; in assay [11], 4.47 µM; in [3] it was 28.9 µM; in assay [4], 16.3 µM; in assay [5] it was 12.5 µM; in [6], 43.3 µM. Besides, the GI50 in assay [8] was 7.57 µM; in assay [10], 0.353 µM. Moreover, the TGI in [2] is 8.33 µM; in [11], greater than 100 µM; in assay [3], greater than 100 µM; in assay [4], greater than 100 µM; in assay [5], greater than 100 µM; in [6], greater than 100 µM. In addition, the TGI is greater than 100 µM in [8] and 7.58 µM in assay [10].
For `C=C(C)[C@]12CC(C)C34OC(/C=C\C=C\CCCCCCCCC)(O[C@@H]1[C@@H]3[C@@H]1O[C@]1(CO)[C@@H](O)[C@]1(O)C(=O)C(C)=C[C@@H]41)O2` (some centres undefined), in [1], the GI50 was 0.000167 µM and the TGI came to 19 µM.
